In patent publication US20240390340A1 (INCYTE CORPORATION, priority 2023, published 2024):

Assays:
Caco-2 cells = assay: Caco2 assay (Papp A-B); type: in vitro ADME; details: test compound 50 μM, 120 min, 37° C.
Experimental: Caco-2 cells are grown at 37° C. in an atmosphere of 5% CO2 in DMEM growth medium supplemented with 10% (v/v) fetal bovine serum, 1% (v/v) nonessential amino acids, penicillin (100 U/mL), and streptomycin (100 μg/mL). Confluent cell monolayers are subcultured every 7 days or 4 days for Caco-2 by treatment with 0.05% trypsin containing […]. Caco-2 cells are seeded in 96-well Transwell plates. The seeding density for Caco-2 cells is 14,000 cells/well. DMEM growth medium is replaced every other day after seeding. Cell monolayers are used for transport assays between 22 and 25 days for Caco-2 cells.
Cell culture medium is removed and replaced with HBSS. To measure the TEER, the HBSS is added into the donor compartment (apical side) and receiver compartment (basolateral side). The TEER is measured by using a REMS Autosampler to ensure the integrity of the cell monolayers. Caco-2 cell monolayers with TEER values 300 Ω·cm^2 are used for transport experiments. To determine the Papp in the absorptive direction (A-B), solution of test compound (50 μM) in HBSS is added to the donor compartment (apical side), while HBSS solution with 4% BSA is added to the receiver compartment (basolateral side). The apical volume was 0.075 mL, and the basolateral volume is 0.25 mL. The incubation period is 120 min. at 37° C. in an atmosphere of 5% CO2. At the end of the incubation period, samples from the donor and receiver sides are removed and an equal volume of MeCN is added for protein precipitation. The supernatants are collected after centrifugation (3000 rpm, Allegra X-14R Centrifuge from Beckman Coulter, Indianapolis, IN) for LCMS analysis. The permeability value is determined according to the equation:
[formula] • where the flux rate (F, mass/time) is calculated from the slope of cumulative amounts of compound of interest on the receiver side, SA is the surface area of the cell membrane, VD is the donor volume, and MD is the initial amount of the solution in the donor chamber.
The symbol “+” indicates a Caco-2 value of ≤0.5, “++” indicates a Caco-2 value of >0.5 but ≤1; and “+++” indicates a Caco-2 value of >1. “NA” indicates IC50 not available.

KRAS G12V = KRAS G12V (Homo sapiens, UniProt P01116, G12V); assay: GDP-GTP exchange assay (bodipy-GDP/GppNHp, SOS1), KRAS G12V; type: biochemical; details: Table H, column G12V; for compounds isolated as several atropisomers/diastereoisomers the value for the most potent isomer is quoted; read-out: KRAS G12V exchange assay IC50
Chain of KRAS G12V (P01116 1-188 isoform P01116-2 G12V): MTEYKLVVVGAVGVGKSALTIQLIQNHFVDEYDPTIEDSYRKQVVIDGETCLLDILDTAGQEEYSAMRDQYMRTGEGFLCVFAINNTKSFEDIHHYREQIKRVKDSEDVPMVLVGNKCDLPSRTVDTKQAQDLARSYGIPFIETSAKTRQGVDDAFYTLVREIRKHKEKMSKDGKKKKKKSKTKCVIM

KRAS G12D = KRAS G12D (Homo sapiens, UniProt P01116, G12D); assay: GDP-GTP exchange assay (bodipy-GDP/GppNHp, SOS1), KRAS G12D; type: biochemical; details: Table H, column G12D; for compounds isolated as several atropisomers/diastereoisomers the value for the most potent isomer is quoted; read-out: KRAS G12D exchange assay IC50
Chain of KRAS G12D (P01116 1-188 isoform P01116-2 G12D): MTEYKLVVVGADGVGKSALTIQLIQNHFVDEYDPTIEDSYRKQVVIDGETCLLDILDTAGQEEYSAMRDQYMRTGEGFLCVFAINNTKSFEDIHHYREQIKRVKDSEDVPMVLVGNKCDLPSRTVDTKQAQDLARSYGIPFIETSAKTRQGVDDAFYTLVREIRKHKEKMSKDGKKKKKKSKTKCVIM

Compound	Caco-2 (Caco-2 cells)	IC50 (KRAS G12V)	IC50 (KRAS G12D)
Cc1cc(F)cc(O[C@H]2C[C@H](c3cc4c([C@@H](C)O)nc5c(F)c(-c6cccc(Cl)c6Cl)c(CCC#N)cc5c4n3[C@H]3[C@H]4CN[C@@H]3C4)N(C(=O)C3CC3)C2)n1 [Example 62, 3-(1-((1R,4R,5S)-2-Azabicyclo[2.1.1]hexan-5-yl)-2-((2R,4S)-1-(cyclopropanecarbonyl)-4-((4-fluoro-6-methylpyridin-2-yl)oxy)pyrrolidin-2-yl)-7-(2,3-dichlorophenyl)-6-fluoro-4-((R)-1-hydroxyethyl)-1H-pyrrolo[3,2-c]quinolin-8-yl)propanenitrile]	++ (a Caco-2 value of >0.5 but ≤1)	≤ 0.1 µM	≤ 0.1 µM
Cc1csnc1CO[C@H]1C[C@H](c2cc3c(-c4ccc(C(C)(C)O)nc4)nc4c(F)c(-c5cccc(Cl)c5Cl)c(CCC#N)cc4c3n2[C@H]2[C@H]3CN[C@@H]2C3)N(C(=O)C2CC2)C1 [Example 25]	+ (a Caco-2 value of ≤0.5)	≤ 0.1 µM	≤ 0.1 µM
Cc1ccccc1CO[C@H]1C[C@H](c2cc3c(C)nc4c(F)c(-c5cccc(Cl)c5Cl)c(CCC#N)cc4c3n2[C@H]2[C@H]3CN[C@@H]2C3)N(C(=O)C2CC2)C1 [Example 21]	+ (a Caco-2 value of ≤0.5)	≤ 0.1 µM	≤ 0.1 µM
Cc1nc2c(F)c(-c3cccc(Cl)c3Cl)c(CCC#N)cc2c2c1cc([C@H]1C[C@H](n3cc(C4(C(F)F)CC4)nn3)CN1C(=O)C1CC1)n2[C@H]1[C@H]2CN[C@@H]1C2 [Example 67, 3-(1-((1R,4R,5S)-2-Azabicyclo[2.1.1]hexan-5-yl)-2-((2R,4S)-1-(cyclopropanecarbonyl)-4-(4-(1-(difluoromethyl)cyclopropyl)-1H-1,2,3-triazol-1-yl)pyrrolidin-2-yl)-7-(2,3-dichlorophenyl)-6-fluoro-4-methyl-1H-pyrrolo[3,2-c]quinolin-8-yl)propanenitrile]	+ (a Caco-2 value of ≤0.5)	≤ 0.1 µM	≤ 0.1 µM
CN(C)C(=O)c1ccc(-c2nc3c(F)c(-c4cccc(Cl)c4Cl)c(CCC#N)cc3c3c2cc([C@H]2C[C@H](OCc4c(F)cccc4F)CN2C(=O)C2CC2)n3[C@H]2[C@H]3CN[C@@H]2C3)cn1 [Example 26]	+ (a Caco-2 value of ≤0.5)	≤ 0.1 µM	≤ 0.1 µM
Cc1nc2c(F)c(-c3cccc(Cl)c3Cl)c(CCC#N)cc2c2c1cc([C@H]1C[C@H](Oc3ccc(N(C)C)nc3)CN1C(=O)C1CC1)n2[C@H]1[C@H]2CN[C@@H]1C2 [Example 38, 3-(1-((1R,4R,5S)-2-Azabicyclo[2.1.1]hexan-5-yl)-2-((2R,4S)-1-(cyclopropanecarbonyl)-4-((6-(dimethylamino)pyridin-3-yl)oxy)pyrrolidin-2-yl)-7-(2,3-dichlorophenyl)-6-fluoro-4-methyl-1H-pyrrolo[3,2-c]quinolin-8-yl)propanenitrile]	++ (a Caco-2 value of >0.5 but ≤1)	≤ 0.1 µM	≤ 0.1 µM
Cc1nc2c(F)c(-c3cccc(Cl)c3Cl)c(CCC#N)cc2c2c1cc([C@H]1C[C@H](Oc3cccnc3OC(F)F)CN1C(=O)C1CC1)n2[C@H]1[C@H]2CN[C@@H]1C2 [Example 37, 3-(1-((1R,4R,5S)-2-Azabicyclo[2.1.1]hexan-5-yl)-2-((2R,4S)-1-(cyclopropanecarbonyl)-4-((2-(difluoromethoxy)pyridin-3-yl)oxy)pyrrolidin-2-yl)-7-(2,3-dichlorophenyl)-6-fluoro-4-methyl-1H-pyrrolo[3,2-c]quinolin-8-yl)propanenitrile]	+ (a Caco-2 value of ≤0.5)	≤ 0.1 µM	≤ 0.1 µM
Cc1cccc(F)c1CO[C@H]1C[C@H](c2cc3c(C)nc4c(F)c(-c5cccc(Cl)c5Cl)c(CCC#N)cc4c3n2[C@H]2[C@H]3CN[C@@H]2C3)N(C(=O)C2CC2)C1 [Example 19]	+ (a Caco-2 value of ≤0.5)	≤ 0.1 µM	≤ 0.1 µM
Cc1nc2c(F)c(-c3cccc(Cl)c3Cl)c(CCC#N)cc2c2c1cc([C@H]1C[C@H](n3nccn3)CN1C(=O)C1CC1)n2[C@H]1[C@H]2CN[C@@H]1C2 [Example 74, 3-(1-((1R,4R,5S)-2-Azabicyclo[2.1.1]hexan-5-yl)-2-((2R,4S)-1-(cyclopropanecarbonyl)-4-(2H-1,2,3-triazol-2-yl)pyrrolidin-2-yl)-7-(2,3-dichlorophenyl)-6-fluoro-4-methyl-1H-pyrrolo[3,2-c]quinolin-8-yl)propanenitrile]	++ (a Caco-2 value of >0.5 but ≤1)	≤ 0.1 µM	≤ 0.1 µM
COc1nccc(O[C@H]2C[C@H](c3cc4c([C@@H](C)O)nc5c(F)c(-c6cccc(Cl)c6Cl)c(CCC#N)cc5c4n3[C@H]3[C@H]4CN[C@@H]3C4)N(C(=O)C3CC3)C2)c1F [Example 53, 3-(1-((1R,4R,5S)-2-Azabicyclo[2.1.1]hexan-5-yl)-2-((2R,4S)-1-(cyclopropanecarbonyl)-4-((3-fluoro-2-methoxypyridin-4-yl)oxy)pyrrolidin-2-yl)-7-(2,3-dichlorophenyl)-6-fluoro-4-((R)-1-hydroxyethyl)-1H-pyrrolo[3,2-c]quinolin-8-yl)propanenitrile]	++ (a Caco-2 value of >0.5 but ≤1)	≤ 0.1 µM	≤ 0.1 µM
Cc1nc2c(F)c(-c3cccc(Cl)c3Cl)c(CCC#N)cc2c2c1cc([C@H]1C[C@H](OC(C)c3ccon3)CN1C(=O)C1CC1)n2[C@H]1[C@H]2CN[C@@H]1C2 (stereo partly drawn) [Example 32]	+ (a Caco-2 value of ≤0.5)	≤ 0.1 µM	≤ 0.1 µM
Cc1nc2c(F)c(-c3cccc(Cl)c3Cl)c(CCC#N)cc2c2c1cc([C@H]1C[C@H](n3cc(F)cn3)CN1C(=O)C1CC1)n2[C@H]1[C@H]2CN[C@@H]1C2 [Example 72, 3-(1-((1R,4R,5S)-2-Azabicyclo[2.1.1]hexan-5-yl)-2-((2R,4S)-1-(cyclopropanecarbonyl)-4-(4-fluoro-1H-pyrazol-1-yl)pyrrolidin-2-yl)-7-(2,3-dichlorophenyl)-6-fluoro-4-methyl-1H-pyrrolo[3,2-c]quinolin-8-yl)propanenitrile]	++ (a Caco-2 value of >0.5 but ≤1)	≤ 0.1 µM	≤ 0.1 µM
Cc1nc2c(F)c(-c3cccc(Cl)c3Cl)c(CCC#N)cc2c2c1cc([C@H]1C[C@H](Oc3ccc(C#N)cn3)CN1C(=O)C1CC1)n2[C@H]1[C@H]2CN[C@@H]1C2 [Example 60, 6-(((3S,5R)-5-(1-((1R,4R,5S)-2-Azabicyclo[2.1.1]hexan-5-yl)-8-(2-cyanoethyl)-7-(2,3-dichlorophenyl)-6-fluoro-4-methyl-1H-pyrrolo[3,2-c]quinolin-2-yl)-1-(cyclopropanecarbonyl)pyrrolidin-3-yl)oxy)nicotinonitrile]	+ (a Caco-2 value of ≤0.5)	≤ 0.1 µM	≤ 0.1 µM
Cc1nc2c(F)c(-c3cccc(Cl)c3Cl)c(CCC#N)cc2c2c1cc([C@H]1C[C@H](OCc3nccs3)CN1C(=O)C1CC1)n2[C@H]1[C@H]2CN[C@@H]1C2 [Example 9]	+ (a Caco-2 value of ≤0.5)	≤ 0.1 µM	≤ 0.1 µM
Cc1ccccc1O[C@H]1C[C@H](c2cc3c(C)nc4c(F)c(-c5cccc(Cl)c5Cl)c(CCC#N)cc4c3n2[C@H]2[C@H]3CN[C@@H]2C3)N(C(=O)C2CC2)C1 [Example 28, 3-(1-((1R,4R,5S)-2-azabicyclo[2.1.1]hexan-5-yl)-2-((2R,4S)-1-(cyclopropanecarbonyl)-4-(o-tolyloxy)pyrrolidin-2-yl)-7-(2,3-dichlorophenyl)-6-fluoro-4-methyl-1H-pyrrolo[3,2-c]quinolin-8-yl)propanenitrile]	++ (a Caco-2 value of >0.5 but ≤1)	≤ 0.1 µM	≤ 0.1 µM
Cc1nc2c(F)c(-c3cccc(Cl)c3Cl)c(CCC#N)cc2c2c1cc([C@H]1C[C@H](n3cc(C45CC(C4)C5)nn3)CN1C(=O)C1CC1)n2[C@H]1[C@H]2CN[C@@H]1C2 [Example 68, 3-(2-((2R,4S)-4-(4-(Bicyclo[1.1.1]pentan-1-yl)-1H-1,2,3-triazol-1-yl)-1-(cyclopropanecarbonyl)pyrrolidin-2-yl)-1-((1R,4R,5S)-2-azabicyclo[2.1.1]hexan-5-yl)-7-(2,3-dichlorophenyl)-6-fluoro-4-methyl-1H-pyrrolo[3,2-c]quinolin-8-yl)propanenitrile]	+ (a Caco-2 value of ≤0.5)	≤ 0.1 µM	≤ 0.1 µM
